Results as given in US10881638B2, “Eye health composition” (Laboratoires Thea, priority 2015, dated 2021).

Tests used:
[1] = tested on: VEGFR receptors (VEGFR1 and VEGFR2), p-VEGFR2, VEGF; test: Western blot of the VEGF pathway in undifferentiated (pathological) ARPE-19 cells; type: cell-based, human; conditions: undifferentiated ARPE-19, 24 h, 20 μM resveratrol (R20) or equivalent (A20)
Protocol: Cells studied: culture of undifferentiated ARPE-19 (ATCC® CRL-2302™) (human retinal pigment epithelium) cells.
The cells were maintained at 37° C., and in the presence of 5% CO2 in the medium DMEM/F12 (GIBCO; 31331), completed with 10% FBS (Lonza) and 15 mM HEPES (pH 7.4; GIBCO).
b) Incubation Between the Compositions (Formula A or B) and the Cells: 1, 5, 10 or 20 μM.
The 10 μM equivalent from formula B also corresponding to 0.115 mg/mL of formula B in DMEM/F12+1% FBS w/o phenol red.
The day prior to treatment, the medium was eliminated and replaced by DMEM/F12 without phenol red (GIBCO; 21041), completed with 1% FBS (Lonza) and 15 mM HEPES (pH 7.4; GIBCO).
After 24 h of stimulation, the media were eliminated, the cells were washed with PBS 1× then scrubbed in PBS 1×. The cells were centrifuged and the remainder was resuspended in the RIPA buffer along with a cocktail of protease inhibitors (Roche) and phosphatase inhibitors. The cells were lysed in ice for 30 minutes, then centrifuged. The protein concentration was determined by means of a protein quantification kit (Lowry kit, biorad). […] The membranes were again washed 3 times in 0.1% PBS-T and the signal was detected by ECL (Tebu bio). The images were recorded with the ChemiDoc imaging system and analyzed with Quantity One Software (Biorad) software.
The β-actin was also quantified in order to relativize the levels of expression.

[2] = tested on: VEGF; conditions: in vitro, human retinal pigmentary epithelium cells (HRPE cells); cited from earlier work
[3] = tested on: VEGFR receptors (VEGFR1 and VEGFR2), p-VEGFR2, VEGF; test: Western blot of the VEGF pathway in differentiated (healthy) ARPE-19 cells; type: cell-based, human; conditions: differentiated ARPE-19, 24 h, 20 μM resveratrol (R20)
Protocol: The protocol used is the same as the one described in the example II-2, except for the cells studied: Cells studied: culture of differentiated ARPE-19 (human retinal pigment epithelium) cells. The undifferentiated cells are seeded in T75 flasks. The cells are maintained at 37° C., and in the presence of 5% CO2 in the medium DMEM/F12 (GIBCO; 31331), completed with 10% FBS (Lonza) and 15 mM HEPES (pH 7.4; GIBCO). When the cells reach confluence, the medium is replaced by DMEM/F12 (GIBCO; 31331), completed with 1% FBS (Lonza) and HEPES (15 mM pH 7.4; GIBCO). The media were changed 2 times per week for 8 weeks. Said cells can be equated with undamaged or healthy retinal cells.

[4] = tested on: VEGF; conditions: wet form of AMD, repeated intravitreal injections; cited from earlier work

## Oc1ccc(/C=C/c2cc(O)cc(O)c2)cc1 [resveratrol]
[1]
  expression of VEGF receptors, resveratrol alone versus composition: makes it possible to reduce the expression of VEGF receptors
[2]
  overexpression of VEGF induced by cytokines: inhibiting in vitro the overexpression of VEGF
[3]
  effect on VEGF receptors of healthy cells, resveratrol alone: has no effect on healthy cells

## pegaptanib
[4]
  effect of the treatment: little effect

B1: ranibizumab: VEGF inhibitor used since 2007 for the wet form of AMD (antibody, chains of the INN, looked up, V domains shown)
VH: EVQLVESGGGLVQPGGSLRLSCAASGYDFTHYGMNWVRQAPGKGLEWVGWINTYTGEPTYAADFKRRFTFSLDTSKSTAYLQMNSLRAEDTAVYYCAKYPYYYGTSHWYFDVWGQGTLVTVSS
VL: DIQLTQSPSSLSASVGDRVTITCSASQDISNYLNWYQQKPGKAPKVLIYFTSSLHSGVPSRFSGSGSGTDFTLTISSLQPEDFATYYCQQYSTVPWTFGQGTKVEIK
modifications: Fab
[4]
  unresponsive or no longer responsive to the treatment: about 30%
